Measured values as given in PMC12434495 (Chemical Science, 2025).

Key:
α-thrombin = test: human α-thrombin; settings: 37 °C, up to 4 h
[1] = cited from earlier work

Row | Substance | not cleaved (α-thrombin) [% cleavage after 4 h] | plasma half-life in vivo [1] [min]
1 | GEPGAPIDYDEYGDSSEEVGGAEVAQPKLYQRGEGGNGMEPIPEDYLQ (the three Y O-sulfated, R1,2,3 = SO3-) | <10 | 
2 | bivalirudin |  | ~30
